Reference: paper PMC8745710, “Biological Evaluation and Molecular Docking Studies of Novel 1,3,4-Oxadiazole Derivatives of 4,6-Dimethyl-2-sulfanylpyridine-3-carboxamide” (International Journal of Molecular Sciences, 2022)
Read-outs that look alike come from different tables or passages of the source.

How the values were obtained:
[1] = tested on: LoVo cell line; test: Intracellular ROS level (DCFH-DA), LoVo cells; format: cell-based; conditions: Homo sapiens, 4 h, compound 100 μM
Protocol: (§1) Two cell lines were chosen for investigations: V79 (Chinese hamster lung fibroblasts) and LoVo. V79 normal cells are widely used as the cell line tested in the studies of the oxidative stress. These cells are a living system model to explain the mechanism of ROS effects caused by varied compounds [73].
(§2) First, the tested compounds (in concentration of 100 μM) were added to the cell cultures and cells were incubated for 4 h. Then cells were washed and incubated with DCFH-DA (non-fluorescent probe) in dark at 37 °C for 2 h at CO2 [79]. Non-fluorescent, non-polar DCFH-DA (2′7′-dichlorodihydrofluorescein diacetate) at concentration of 25 μM was used as a marker of oxidative stress to determine the intracellular ROS levels. […] In this time, DCFH-DA which penetrated into the cells, was hydrolyzed by esterases to polar, non-fluorescent DCFH (2′7′-dichlorodihydrofluorescein) and then oxidized in the presence of ROS (reactive oxygen species) to fluorescent DCF (2′7′-dichlorofluorescein). DCF was measured using Varioscan LUX microplate reader (Thermo Fisher Scientific, Waltham, MA, USA) at λex = 485 nm and λem = 535 nm.
(§3) E is the culture with the tested compound and E0 is the negative control without the compound. The routine statistical methods: two-way analysis of variance ANOVA as well as Tukey’s post-hoc test were used. It allowed us to determine the statistical significance of results, where p < 0.05 was set as significant. The statistical indicators were estimated using Statistica 13.3 software.

[2] = tested on: V79 (fibroblasts from Chinese hamster lung); test: MTT assay, V79; format: cell-based; conditions: Cricetulus griseus, Fibroblast, 48 h incubation, read-out: IC50 [µM] ± SD V79
Source text: (§4) The MTT (3-[4,5-dimethylthiazol-2-yl]-2,5-diphenyl tetrazolium bromide) assay was used to determine the cytotoxicity of tested compounds towards different cell lines: normal human dermal fibroblasts (NHDF), kidney epithelial cells (VERO), fibroblasts from Chinese hamster lung (V79) and four human cancer cells: A549 (pulmonary basal cell alveolar adenocarcinoma), MCF-7 (breast adenocarcinoma), LoVo (colon adenocarcinoma), and its drug resistant subline LoVo/Dx. The cell lines used in this study express COX-1 and COX-2. The LoVo line expressed COX-1, the LoVo/Dx subline express both COX-1 and COX-2 [61].
(§5) Each cell line was grown in the culture media recommended by supplier. Before the test they were detached with trypsin/EDTA solution, then to neutralize the effect of Trypsin/EDTA solution, FBS containing medium was used. After centrifugation the cells were stained with 0.4% solution of trypan blue, counted and inspected for viability using microscope. In the end, cells were inserted into 96-well culture plates and incubated in CO2 incubator (37 °C, 24 h). The number of cells was 2 × 10^3 cells per well. The tested compounds with different concentrations (5, 10, 20, 50, 100 µM) were dissolved in DMSO and then added to the cells (the final DMSO concentration was 0.1%). The cultures were incubated for another 48 h. After that time the cells were collected to be used in tests.
(§6) MTT assay was used to find out how tested compounds influence the metabolic activity of investigated cell lines. The cells were incubated with tested compounds. After removing of supernatant, 1 mg/mL of MTT solution in MEM was added to the plate (to each well) and then the plates were incubated at 37 °C for 2 h. The medium was removed again, and formazan crystals were dissolved in isopropanol. A Varioscan LUX microplate reader (Thermo Fisher Scientific, Waltham, MA, USA) was used to measure absorbance at 570 nm.

[3] = tested on: VERO (kidney epithelial cells); test: MTT assay, VERO; format: cell-based; conditions: 48 h incubation
Source text: as §4, §5, §6

[4] = tested on: LoVo/Dx (drug resistant subline of LoVo); test: MTT assay, LoVo/Dx; format: cell-based; conditions: Homo sapiens, 48 h incubation, read-out: IC50 [µM] ± SD LoVo/Dx
Source text: as §4
as §5, with “In the end, cells were inserted into 96-well culture plates and incubated in CO2 incubator (37 °C, 24 h).” left out
MTT assay was used to find out how tested compounds influence the metabolic activity of investigated cell lines. The cells were incubated with tested compounds. […] The medium was removed again, and formazan crystals were dissolved in isopropanol.

[5] = tested on: V79 cell line; test: Intracellular ROS level (DCFH-DA), V79 cells; format: cell-based, Chinese hamster; conditions: Cricetulus griseus, 4 h, V79, compound 100 μM
Protocol: as §1
as §2, with “nm. Then results were presented as E/E0 where E is test sample value and E0—control value.” for “nm.”
as §3, with “[…] E is” for “E is”

[6] = tested on: NHDF (normal human dermal fibroblasts); test: MTT assay, NHDF; format: cell-based; conditions: 48 h incubation, read-out: IC50 [µM] ± SD NHDF
Source text: as §4, §5, §6

[7] = tested on: LoVo (colon adenocarcinoma); test: MTT assay, LoVo; format: cell-based; conditions: Homo sapiens, 48 h incubation, read-out: IC50 [µM] ± SD LoVo
Source text: as §4, §5, §6

[8] = tested on: A549 (pulmonary basal cell alveolar adenocarcinoma); test: MTT assay, A549; format: cell-based; conditions: Homo sapiens, 48 h incubation, read-out: IC50 [µM] ± SD A549
Source text: as §4, §5, §6

[9] = with H2O2 (100 μM, 30 min), n = 5, read-out: ROS scavenging activity, Mean E/E0 ± SD, with H2O2
[10] = without H2O2, n = 5, read-out: ROS scavenging activity, Mean E/E0 ± SD, without H2O2

SMILES	activity at 100 µM [1, 9] [%]	IC50 [2] [µM]	IC50 [µM] ± SD VERO [3]	IC50 [4] [µM]	activity at 100 µM [5, 9] [%]	activity at 100 µM [5, 10] [%]	IC50 [6] [µM]	IC50 [7] [µM]	activity at 100 µM [1, 10] [%]	IC50 [8] [µM]
Cc1cnc(NC(=O)C2=C(O)c3ccccc3S(=O)(=O)N2C)s1 [Meloxicam, meloxicam, reference compound]	89 ± 16	201 ± 17.8	no toxicity	142 ± 9.46	85 ± 18	115 ± 19	196 ± 35.2			
CN1C(C(=O)Nc2ccccn2)=C(O)c2ccccc2S1(=O)=O [Piroxicam, piroxicam, reference compound]	81 ± 19	213 ± 23.2	no toxicity	126 ± 11.2	67 ± 17	98 ± 17	162 ± 22.9	122 ± 10.2	72 ± 19	110 ± 28.2
Cc1c(C)c2c(c(C)c1O)CCC(C)(C(=O)O)O2 (stereo not shown) [Trolox, trolox, reference compound]	29 ± 15				15 ± 8	71 ± 5			85 ± 13	
O=C1O[C@H]([C@@H](O)CO)C(O)=C1O [Ascorbic acid, ascorbic acid, reference compound]	32 ± 9				22 ± 12	83 ± 13			89 ± 11	
